Source: paper PMC11391541, “Target-Directed Dynamic Combinatorial Chemistry Affords Binders of Mycobacterium tuberculosis IspE” (ACS Omega, 2024)
≈ marks a conversion by molar mass, not a printed value. Where “and” joins values, the source holds several entries; their conditions need not be identical. Equal entries are not always repeated.

Key:
MtbIspE [1] = biological target: T1, MtbIspE (Mycobacterium tuberculosis, UniProt P9WKG7); experiment: target-directed dynamic combinatorial chemistry (tdDCC), amplification of acylhydrazones in protein-templated vs blank DCL (HPLC-MS/MS, UV 310 nm); type: binding; settings: for Amplification factors (DCL-4): DCL-4, 24 h; for Amplification factors (DCL-4) / Amplification factors (DCL-3): 40 mol % MtbIspE; for Amplification factors (DCL-3): DCL-3, 24 h, I1 and K1 integrated as one cluster
T1 sequence (P9WKG7 whole entry): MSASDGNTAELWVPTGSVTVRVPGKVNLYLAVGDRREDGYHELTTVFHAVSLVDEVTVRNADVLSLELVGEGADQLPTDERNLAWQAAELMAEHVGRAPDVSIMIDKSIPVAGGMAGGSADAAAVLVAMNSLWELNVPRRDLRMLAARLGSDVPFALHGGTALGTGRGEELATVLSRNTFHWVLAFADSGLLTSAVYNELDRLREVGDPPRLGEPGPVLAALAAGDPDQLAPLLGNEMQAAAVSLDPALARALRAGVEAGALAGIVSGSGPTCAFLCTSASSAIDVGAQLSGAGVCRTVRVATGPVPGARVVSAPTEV
Experimental: In this study, we used MtbIspE as target protein and the reversible reaction of hydrazides and aldehydes to form dynamic combinatorial libraries (DCLs) of acylhydrazones. […] To accelerate the reaction at neutral pH, aniline was used as nucleophilic catalyst activating the aldehydes.[2],[4],[19] We analyzed the protein’s effect on the DCLs by comparing HPLC-MS/MS data of blank vs protein-templated (PT) experiments. The experiments spanned 3 days, with periodic sampling (every 2 h, followed by two samples per day after 8 h). The addition of NaOH to raise the pH and halt the reactions ensured the sample composition was preserved for analysis.[19] Templated experiments were conducted in duplicate, and the protein was denatured and removed prior to HPLC-MS/MS analysis.
The tdDCC hits and thus potential MtbIspE binders are amplified in the PT experiment compared to the blank experiment. The first step in the analysis of DCLs is the determination of the equilibrium since the amplification factors need to be calculated when the concentration of products is stable. To determine the evolution of the possible products, it is important to measure the characteristic UV absorbance of the acylhydrazones linker (310 nm) during the HPLC-MS/MS run. The resulting UV peaks are assigned to each product using the MS data (Figures S3–S6). The sum of all peak areas is normalized to 100% in order to obtain the respective relative peak area (RPA) for each product. The RPA values represent relative concentrations, determined at each time point of the blank experiment until the values stabilize. […] However, the rest of the compounds are out of range, making a visual inspection difficult. […] The other three libraries behaved in the same way, reaching equilibrium within 24 h and also maintained stable concentrations beyond (Figures S7–S9). To determine the tdDCC hits, we compared the RPAs of the PT experiments to the blanks at 24 h and set a threshold of at least 50% increase in compound formation. In total, 11 acylhydrazones passed our criteria, with amplification factors ranging from […] to 15.5, qualifying them for resynthesis and further evaluation (Figure 3). During the analysis of chromatograms, challenges arose concerning product identification. Some compound peaks were not neatly separated, forcing us to consider them in clusters, others presented two peaks, likely due to isomers, and were considered separately in our evaluation. Lastly, some compounds were detected by MS, but their respective UV signal interfered with the injection peak or was too low for integration (<1%), both in the blank and PT experiments. Consequently, we excluded these compounds from the analysis (Figure S3–S6).
To a well of a 24-well plate, containing Tris buffer (pH 7.0) were added hydrazides (300 μM each, in DMSO), aldehydes (100 μM each, in DMSO), aniline (20 mM, in DMSO), the protein MtbIspE (25 or 40 μM in Tris buffer at pH 7.0), and an additional amount of DMSO to reach a final concentration of 5% in the DCL with 0.5 mL of end-volume. The DCL was allowed to mix on a plate shaker at room temperature and was frequently monitored via LCMS-MS. For analysis, 30 μL of the corresponding library was mixed with 42 μL acetonitrile and 3 μL of NaOH (1 M), the mixture was centrifuged, and the supernatant was used for the analysis. PT experiments were run in duplicates and the protein was omitted for the blank experiments.
High-resolution mass (HRMS) of final products was determined by HPLC-MS/MS using a Thermo Scientific Q Exactive Focus Orbitrap LC -MS/MS system. All compounds were analyzed for purity by LCMS on Acquity UPLC-SQD system from Waters with a gradient elution of Water (Formic acid 0.1%)/Acetonitrile on an HSS - T3 column (2.1 x 50 mm, Waters), 1.8 µm, at 30°C, PDA detection between 240 -320 nm, and MS detection by simultaneous ES+/ES- ionization in a mass range of 150 -800. The flow is set to 0.9 ml/min, and the […]
gradient time is 1.5 min. […]

[2] = solubility in M. tuberculosis 7H9 growth medium; type: physicochemical; settings: Mtb 7H9 growth medium; for solubility: M. tuberculosis 7H9 growth medium, plasma or biological fluid, kinetic from dmso stock
Experimental: Prior to biological evaluation of the tdDCC hits, we tested their solubility in a standard buffer as well as in M. tuberculosis 7H9 growth medium. […] Regrettably, with 3.3 μM the least soluble compound is E1, making our most amplified and promising compound unsuitable for biological evaluation. We assessed the solubility in Mtb growth medium given that it is a complex, nutrient-rich environment with a distinct solubility profile. However, the trend continued, only seven hits are soluble at 8 μM or above, the remaining five compounds, including E1, were not eligible for antitubercular activity testing (Table 1).
Determination of in vitro anti-tubercular activity and solubility in 7H9 medium Anti-tubercular tests were performed as previously described .1 In brief, 7H9 complete medium (BD Difco; Becton Dickinson, Maryland,USA) supplemented with 10% OADC (BD), 0.2% glycerol, and 0.05% Tween80 as previously described ,3 was used to culture Mycobacterium tuberculosis (Mtb) strain H37Rv (ATCC 25618) carrying a mCherry -expressing plasmid (pCherry10 ).4 Cultures were harvested at mid-log phase and frozen in aliquots at – 80 °C. Prior to testing aliquots were thawed followed by centrifugation and the pellet was resuspended in 7H9 medium with 10% OADC (without glycerol and Tween80). This was further thoroughly resuspended by passing it through a syringe with a 26 -gauge needle to avoid clumping of the bacteria. 2×10^5 CFU (colony forming units) were then cultured in a total volume of 100 μl culture medium (triplicates) to test the non-precipitating compounds for the anti-tubercular activity at the concentrations indicated. For these assays, 96-well flat clear bottom black polystyrene microplates (Corning® CellBIND®, Merck, New York, USA) wer e used. Each plate had Rifampicin (at 1 μg/ml and 0.1 μg/ml) (National Reference Center, Borstel) as a reference compound. Plates were sealed with an air -permeable membrane (Porvair Sciences, Wrexham, UK) in a 37 °C incubator with mild agitation (TiMix5, Edmund Bühler, Germany). The activity of compounds was determined after 7 days by measuring the bacterial growth as relative light units (RLU) from the fluorescence intensity obtained at an excitation wavelength of 575 nm and an emission wavelength of 635 n m in a microplate reader (Synergy 2, BioTek Instruments, Vermont, USA). Two independent experiments (each in triplicates) were performed, and all values were normalized to untreated control sample (100%) in each experiment.
To obtain information regarding the toxicity of our compounds, their impact on the viability of human cells was investigated. HepG2 cells (2x10^4 cells per well) were seeded in 96 -well, flat-bottomed culture plates in 100 µL culture medium (DMEM containing 10% fetal calve serum, 1% penicillin -streptomycin). Twenty-four hours after seeding the cells, medium was removed and replaced by medium containing test compounds in a final DMSO concentration of 1%. Compounds were tested in duplicates at a single concentration or, for CC50 determination, at 8 concentrations that were prepared via 2 -fold serial dilutions in 1% DMSO/medium. Epirubicin and doxorubicin were used as positive controls in serial dilutions starting from 10 µM, and rifampicin was used as a negative control (at 100 µM). The living cell mass was determined 48 h after treatment with compounds by adding 0.1 volumes of 3 -(4,5-dimethylthiazol-2-yl)-2,5-diphenyltetrazolium bromide (MTT) solution (5 mg/mL sterile PBS) (Sigma, St. Louis, MO) to the wells. After incubating the cells for 30 min at 37 °C (atmosphere containing 5% CO2), medium was removed and MTT crystals were dissolved in 75 µL of a solution containing 10% SDS and 0.5% acetic acid in DMSO. The optical density (OD) of the samples was determined photometrically at 570 nm in a PHERAstar Omega plate reader (BMG labtech, Ortenberg, Germany). To obtain percent viability for each sample, their ODs were related to those of DMSO controls. […]

MtbIspE [3] = biological target: T1, MtbIspE; experiment: MtbIspE binding study via MicroScale Thermophoresis (MST); settings: MST, 20 μM ligand, 200 nM MtbIspE, triplicate; qualitative
MtbIspE [4] = biological target: T1, MtbIspE; experiment: MtbIspE binding study via thermal shift assay; settings: read-out: MtbIspE ΔTm at 20 μM
MtbH37Rv = type: cell-based, Mycobacterium tuberculosis
EcTolC = experiment: microbe, parasite or virus in culture; type: cell-based; settings: Escherichia coli, 18 h, LB medium, read-out: EcTolC %inh. At 50 μM
physchem = settings: aqueous with cosolvent or surfactant or cyclodextrin, kinetic from dmso stock
in vitro = settings: human, HepG2 CC50, HepG2, 48 h, MTT
EcK12 = experiment: E. coli growth inhibition, wild-type strain K12; type: cell-based, Escherichia coli; settings: Escherichia coli, 18 h, LB medium, read-out: EcK12 %inh. At 50 μM

With COc1ccc(-c2cc(/C=N/NC(=O)Cn3nc(C)cc3C)no2)cc1 [B6, (E)-2-(3,5-Dimethyl-1H-pyrazol-1-yl)-N′-((5-(4-methoxyphenyl)isoxazol-3-yl)methylene)acetohydrazide] the “Amplification factors (DCL-4)” value (MtbIspE [1]) was 0.9, the solubility [2] was 16 µM and the “MtbIspE binding at 20 μM” value (MtbIspE [3]) was “bound in two out of three measurements and 2/3”. For the same molecule, the ΔTm at 20 µM (MtbIspE [4]) was < 0.3 °C, the “MtbH37Rv MIC90” value (MtbH37Rv) was “no inh. at max. sol” and the inhibition at 50 µM (EcTolC) was < 10%. The solubility at 5 min (physchem; solubility 5% DMSO in PBS) was 65 ± 35 µM (≈ 23 µg/mL) and the CC50 (in vitro) was > 50 µM.

For CN1CCN(CC(=O)N/N=C/c2cc(Cl)ccc2O)CC1 [C1, (E)-N′-(5-Chloro-2-hydroxybenzylidene)-2-(4-methylpiperazin-1-yl)acetohydrazide], the solubility [2] was 16 µM, the “MtbIspE binding at 20 μM” value (MtbIspE [3]) was “consistently demonstrated binding across all measurements and Yes” and the ΔTm at 20 µM (MtbIspE [4]) was < 0.3 °C. For the same molecule, the “MtbH37Rv MIC90” value (MtbH37Rv) was “no inh. at max. sol”, the inhibition at 50 µM (EcTolC) was 17.1 ± 0.1% and the inhibition at 50 µM (EcK12) was < 10%. For the same molecule, the solubility at 5 min (physchem; solubility 5% DMSO in PBS) was > 800 µM, the solubility at 5 min (physchem; solubility in PBS with 5% DMSO) was ~1000 µM (≈ 311 µg/mL) and the CC50 (in vitro) was > 50 µM.

For Nc1c(C(=O)N/N=C/c2cc(Cl)ccc2O)nnn1-c1cccc(C(F)(F)F)c1 [E1, (E)-5-Amino-N′-(5-chloro-2-hydroxybenzylidene)-1-(3-(trifluoromethyl)phenyl)-1H-1,2,3-triazole-4-carbohydrazide], the “amplification factor (DCL-1 at 24 h)” value (MtbIspE [1]; DCL-1, 24 h, 25 mol % MtbIspE) was 0.5, the “solubility in 7H9” value [2] was “insoluble” and the inhibition at 50 µM (EcTolC) was < 10%. The solubility at 5 min (physchem; solubility 5% DMSO in PBS) was 3.3 ± 1 µM (≈ 1.4 µg/mL) and the CC50 (in vitro) was > 50 µM.

With Nc1c(C(=O)N/N=C/c2ccc(C(F)(F)F)cc2)nnn1-c1cccc(C(F)(F)F)c1 [E4, (E)-5-Amino-N′-(4-(trifluoromethyl)benzylidene)-1-(3-(trifluoromethyl)phenyl)-1H-1,2,3-triazole-4-carbohydrazide] the “Amplification factors (DCL-4)” value (MtbIspE [1]) was 0.7, the “solubility in 7H9” value [2] was “insoluble” and the “MtbIspE binding at 20 μM” value (MtbIspE [3]) was “consistently demonstrated binding across all measurements and Yes”. For the same molecule, the inhibition at 50 µM (EcTolC) was < 10%, the solubility at 5 min (physchem; solubility 5% DMSO in PBS) was 12 ± 6 µM (≈ 5.31 µg/mL) and the CC50 (in vitro) was > 50 µM.

In the case of COc1ccc(-c2cc(/C=N/NC(=O)c3nnn(-c4cccc(C(F)(F)F)c4)c3N)no2)cc1 [E6, (E)-5-Amino-N′-((5-(4-methoxyphenyl)isoxazol-3-yl)methylene)-1-(3-(trifluoromethyl)phenyl)-1H-1,2,3-triazole-4-carbohydrazide], the “Amplification factors (DCL-4)” value (MtbIspE [1]) is reported as 2.3, the “solubility in 7H9” value [2] is reported as “insoluble” and the “MtbIspE binding at 20 μM” value (MtbIspE [3]) is reported as “No”. For the same molecule, the ΔTm at 20 µM (MtbIspE [4]) was 0.7 °C, the inhibition at 50 µM (EcTolC) was < 10% and the solubility at 5 min (physchem; solubility 5% DMSO in PBS) was 29 ± 10 µM (≈ 13.7 µg/mL). For the same molecule, the CC50 (in vitro) was > 50 µM.

For COc1ccc(NC(=O)c2cc(C(=O)N/N=C/c3cc(Cl)ccc3O)n(C)n2)cc1OC [H1, (E)-5-(2-(5-Chloro-2-hydroxybenzylidene)hydrazine-1-carbonyl)-N-(3,4-dimethoxyphenyl)-1-methyl-1H-pyrazole-3-carboxamide], the “Amplification factors (DCL-3)” value (MtbIspE [1]) was 7.8, the solubility [2] was 32 µM and the “MtbIspE binding at 20 μM” value (MtbIspE [3]) was “No”. For the same molecule, the ΔTm at 20 µM (MtbIspE [4]) was < 0.3 °C, the “MtbH37Rv MIC90” value (MtbH37Rv) was “no inh. at max. sol” and the inhibition at 50 µM (EcTolC) was < 10%. It also gave a solubility at 5 min (physchem; solubility 5% DMSO in PBS) of 28 ± 6 µM (≈ 12.8 µg/mL) and a CC50 (in vitro) of 32 ± 5 µM.

For O=C(N/N=C/c1cc(Cl)ccc1O)C12CC3CC(C1)CC(n1cnc(Cl)n1)(C3)C2 [I1, (1R,3S,5R,7S)-3-(3-Chloro-1H-1,2,4-triazol-1-yl)-N′-((Z)-5-chloro-2-hydroxybenzylidene)adamantane-1-carbohydrazide], the “Amplification factors (DCL-3)” value (MtbIspE [1]) was 2.0, the solubility [2] was 64 µM and the “MtbH37Rv MIC90” value (MtbH37Rv) was “no inh. at max. sol”. The inhibition at 50 µM (EcTolC) was 33 ± 3%, the inhibition at 50 µM (EcK12) was < 10% and the solubility at 5 min (physchem; solubility 5% DMSO in PBS) was 8 ± 4 µM (≈ 3.47 µg/mL).
